From patent US20220287949A1, “SAFE PARTICLES FOR THE INTRODUCTION OF USEFUL CHEMICAL AGENTS IN THE BODY WITH CONTROLLED ACTIVATION” (priority 2019, published 2022)
Converted amounts (≈) assume the structure as drawn. Read-outs that look alike come from different tables or passages of the source.

Columns and labels:
[1] = cited from earlier work
[2] = cited from earlier work; remark: listed apart in the source
[3] = tested on: NIH 3T3 murine fibroblasts; assay: Cytotoxicity of particle components (MTS assay); format: cell-based; settings: dye solution in ethanol, NIH 3T3, 24 hours, 37° C.
Procedure: Dye components were each dissolved in ethanol (molecular grade ethanol from Fisher Scientific) to produce a stock solution at 1 mM (B141, M071, and Epolight™ 1117) or 100 μM (C161). For each stock solution, additional dilutions were made at 2×, 4×, 8×, 16×, 32×, 64×, and 128×, and each concentration was tested for cytotoxicity against NIH 3T3 murine fibroblasts in a cytotoxicity test. NIH-3T3 cells were plated in a 96-well culture plate at a density of 10,000 cells per well and allowed to adhere to the surface overnight. Different concentrations of the dye solution were added to the NIH 3T3 cells and incubated for 24 hours at 37° C., in a 5% CO2 incubator. Controls for the cytotoxicity experiment included “live” and “dead” (cells were killed due to osmotic pressure by adding D.I. water). “Live” cells had nothing except cell culture media containing 10% FBS added to them and were used to obtain the 100% viability data. The “dead” control was used to obtain the 0% viability data point. After 24 hours, cells were washed twice with 1× PBS containing calcium and magnesium and 100 μL of media was added at the end. To a final volume of 100 μL of media in the wells, 20 μL of PMS activated MTS reagent was added and incubated for 90 minutes. At the end of the 90 minutes, absorbance was measured at 490 nm using a plate reader (Spectramax M2e, Molecular Devices). Viability of cells was calculated using the absorbance measured for the “live” (100%) and “dead” (0%) controls and the results of % viability estimated from the absorbance for the different concentrations of the dyes were plotted in MS Excel using linear regression curve fitting algorithm to obtain the IC30. All the samples were tested in triplicate and results were averaged over the three repeats.

[4] = Surfactant-based extractable test (dye leaching into 1% SDS); format: physicochemical
Procedure: Dried particles (50 mg) were added to 3 mL of 1% sodium dodecyl sulfate to form a dispersion. The dispersion was sonicated for approximately 1 hour. The dispersion was centrifuged, and the supernatant component was withdrawn and filtered through a […] syringe filter. The absorbance spectrum of the filtrate was measured from 400-1300 nm using Shimadzu UV-3600 UV/VIS/NIR Spectrophotometer in a 1 cm cell.
The amount of the dye leached is calculated as in 2b above by applying Beer's law (Eq. 1) to give leachate concentrations. Leaching reduction is defined as the percentage of dye leached from coated particles when compared to uncoated particles of the same structure.
Portions of these particles were coated with several different shell thicknesses as described in Example lb above and tested for effectiveness in preventing dye leaching following the surfactant-based extractable test described in section Example 3b. […]

[5] = Laser triggered changing of color of tattoo particles in gelatin; settings: for Abs: M071 at 458 nm, IR at 1064 nm
Procedure: Procedure: A solution of gelatin was prepared by adding Knox gelatin (1.0 g) to cold water (12.5 g) in a 100 mL glass jar equipped with a magnetic stir bar. The gelatin was stirred 15-30 minutes and then hot water was added (70° C.) until the total weight was 50.0 g. This gelatin was then used in 2.0 gm aliquots. Colorant loaded PMMA-BMA B-805 copolymer particles with 25% VTMS shells as prepared in Example lb above (20-30 mg) were then added to the gelatin solution (2.0 g) and vortexed in a 4 dram vial. The suspension of the tattoo particles in gelatin was then sonicated for 15-30 minutes before transferring to a 5 cm plastic culture dish. The gelatin suspension was spread evenly and allowed to set. It was then covered and stored at 6° C. until used.
Laser exposure was accomplished as follows: The cover for the culture dish was removed and a 5 cm clear plastic cover was cut and fit over the gelatin to prevent splatter. The top surface was then completely irradiated at 1064 nm with a 5 mm spot using fluences ranging from 2.46 J/cm^2 to 5.09 J/cm^2 using a Nd-YAG Q-switched Lutronic laser (Lutronic Spectra™ VRM II Laser with four distinct Q-switched mode wavelengths: 1064 nm, 532 nm, 585 nm, 650 nm, nano second pulse width, and spectra peak energy: 60 MW, 120 MW and 240 MW).
After irradiating the top surface, the culture dish was covered with its lid, turned over and irradiated from the opposite side to reach any unexposed particles visible only from the bottom side.
Following the complete irradiation, the plastic cover was removed and any adhered gelatin was transferred to a 10 ml centrifuge tube. The gelatin from the culture dish was also removed and transferred to the centrifuge tube with the aid of about 5 ml of water. The culture tube was rinsed with water and any suspended gelatin transferred by pipette to the centrifuge tube. The material in the tube was sonicated until the gelatin was redissolved (20-30 minutes, about 40° C.).
The sample was centrifuged for 20 minutes and the supernatant was removed. The recovered particles were slurried again with water, centrifuged, and the wash water removed. The resultant particles were dried in vacuum at room temperature and analyzed spectroscopically for the presence of dyes as in 2b above.
The standard fluence for removal of tattoo color in designs using these particles is 3.51 J/cm^2. 5.09 J/cm^2 is the maximum fluence on the Lutronic laser using a 5 mm spot. The laser triggered color changing tests were performed on 2 μm 5:1 Y197 (12.5% Y197:6.25% IR 1117), 2 μm 7:1 M071 (6.25% M071, 8.0 wt. % IR 1117), 2 μm 5:1 PBS (2.56 wt. % B141, 0.77 wt. % C161, 0.39 wt. % M071, 1.28 wt. % Y184, 8.0 wt. % IR1117), 2 μm 5:1 Y184 (12.5 wt. % Y184, 8.0 wt. % IR 1117) particles in the entries 21-24 of Table 3 above.(the numeric ratio is weight ratio of PMMA-BMA B-805 copolymer to colorant in the particle)

[6] = Table 7B: 0.5 μm 2:1 PB4 particles with a 25% VTMS shell vs uncoated
[7] = 2 μm 5% PB5 particles, 25% VTMS shell, fluence 0 J/cm^2 (no laser)
[8] = 2 μm 5% PB5 particles, 1064 nm laser, fluence 3.51 J/cm^2
[9] = 2 μm 5% PB5 particles, 1064 nm laser, fluence 4.28 J/cm^2
[10] = 2 μm 5% PB5 particles, 1064 nm laser, fluence 5.09 J/cm^2
[11] = 2 μm 7:1 M071 particles, 25% VTMS shell, fluence 0 J/cm^2 (no laser)
[12] = 2 μm 7:1 M071 particles, 1064 nm laser, fluence 2.46 J/cm^2
[13] = 2 μm 7:1 M071 particles, 1064 nm laser, fluence 3.03 J/cm^2
[14] = 2 μm 7:1 M071 particles, 1064 nm laser, fluence 3.51 J/cm^2
[15] = 2 μm 7:1 M071 particles, 1064 nm laser, fluence 4.28 J/cm^2
[16] = 2 μm 7:1 M071 particles, 1064 nm laser, fluence 5.09 J/cm^2

For `O=S(=O)(O)CCCNC(CO)(CO)CO` [TAPS], the “Solubility in water at 0° C.” value [1] is listed as “Large”.
In the case of `O=S(=O)(O)CCN1CCN(CCS(=O)(=O)O)CC1` [PIPES, piperazine-N,N′-bis(2-ethanesulfonic acid)], the “pKa at 20° C.” value [2] is listed as 6.82.
For `C[N+](C)(C)CCN` [Cholamine chloride], the “pKa at 20° C.” value [2] is given as 7.10 and the “Solubility in water at 0° C.” value ([1]; (as HCl)) is given as 4200 mM.
For `NCC(N)=O` [Glycinamide], the “pKa at 20° C.” value [2] is listed as 8.2 and the “Solubility in water at 0° C.” value ([1]; (as HCl)) is listed as 6400 mM (≈ 474 mg/mL).
In the case of `O=S(=O)(O)CC(O)CN1CCN(CCO)CC1` (stereo not shown) [HEPPSO], the “Solubility in water at 0° C.” value [1] is listed as 2200 mM (≈ 590 mg/mL).
For `CC(C)(CO)NCCCCS(=O)(=O)O` [AMPB], the “pKa at 20° C.” value [2] is given as 8.8.
In the case of “3,6-bis(2,3-dihydro-1H-indol-1-yl)-9-[2-[[[(1,1-dimethylethoxy)carbonyl]methylamino]sulfonyl]phenyl]-xanthylium [C161]”, the “IC30 (70% viability)” value [3] is reported as 14.65 μM^a and the “IC30 (70% viability)” value ([3]; listed as Cyan dye) is reported as “about 14 μM”.
In the case of “9-[2-[[[(1,1-dimethylethoxy)carbonyl]methylamino]sulfonyl]phenyl]-3,6-diphenoxy-xanthylium [Y161]”, the Leachate concentration ([4]; Table 7B: 0.5 μm 2:1 PB4 particles with a 25% VTMS shell) is reported as 1.2 µM, the “Leaching reduced to” value [4, 6] is reported as 1.4% and the “Reduction Factor” value [4, 6] is reported as 72.6. It also gave a Leachate concentration ([4]; Table 7B: 0.5 μm 2:1 PB4 particles, uncoated particle) of 87.1 µM.
For “3,6-bis[(2-chlorophenyl)methylamino]-9-[2-[[[(1,1-dimethylethoxy)carbonyl]methylamino]sulfonyl]phenyl]-xanthylium [M071]”, the “% Reduction” value [5, 7] was 0%, the Abs [5, 7] was 0.023 and the “% Reduction” value [5, 8] was 30%. For the same molecule, the Abs [5, 8] was 0.016, the “% Reduction” value [5, 9] was 30% and the Abs [5, 9] was 0.016. For the same molecule, the “% Reduction” value [5, 10] was 30%, the Abs [5, 10] was 0.016 and the “% Reduction” value [5, 11] was 0%. The Abs [5, 11] was 0.207, the “% Reduction” value [5, 12] was 23% and the Abs [5, 12] was 0.159. For the same molecule, the “% Reduction” value [5, 13] was 30%, the Abs [5, 13] was 0.146 and the “% Reduction” value [5, 14] was 34%. For the same molecule, the Abs [5, 14] was 0.137, the “% Reduction” value [5, 15] was 47% and the Abs [5, 15] was 0.109. For the same molecule, the “% Reduction” value [5, 16] was 43%, the Abs [5, 16] was 0.119 and the “fluence at which the dye decay levels off” value ([5]; 1064 nm laser, particles in gelatin) was 4.28 J/cm^2. For the same molecule, the “decay (reduction) after laser irradiation” value ([5]; M071 particles, 1064 nm laser, fluences 2.46 to 5.09 J/cm^2) was “about 50%”, the “IC30 (70% viability)” value [3] was 63.23 μM^a and the “IC30 (70% viability)” value ([3]; listed as Magenta) was “about 61 μM”.
With “6-(dibutylamino)-9-[2-[[[(1,1-dimethylethoxy)carbonyl](methylsulfonyl)amino]methyl]phenyl]-3-methyl-2-(phenylamino)-xanthylium [B141]” the “IC30 (70% viability)” value [3] was 61.22 μM^a and the “IC30 (70% viability)” value ([3]; listed as Black) was “about 61 μM”.
For `O=S(=O)(O)CC(O)CN1CCOCC1` (stereo not shown) [MOPSO, 2-hydroxy-3-morpholin-4-ylpropane-1-sulfonic acid], the “Solubility in water at 0° C.” value [1] is listed as 750 mM (≈ 169 mg/mL).
In the case of `NC(=O)CN(CC(=O)O)CC(=O)O` [ADA, 2-[(2-amino-2-oxoethyl)-(carboxymethyl)amino]acetic acid], the “pKa at 20° C.” value [2] is given as 6.62.
For `O=S(=O)(O)CCCN1CCN(CCO)CC1` [HEPPS, 3-[4-(2-Hydroxyethyl)piperazin-1-yl]propane-1-sulfonic acid], the “pKa at 20° C.” value [2] is given as 8.1 and the “Solubility in water at 0° C.” value [1] is given as “Large”.
In the case of `O=S(=O)(O)CC(O)CNC(CO)(CO)CO` (stereo not shown) [TAPSO, 3-[[1,3-dihydroxy-2-(hydroxymethyl)propan-2-yl]amino]-2-hydroxypropane-1-sulfonic acid], the “Solubility in water at 0° C.” value [1] is listed as 1000 mM (≈ 259 mg/mL).
For `O=S(=O)(O)CCCNC1CCCCC1` [CAPS], the “pKa at 20° C.” value [2] is given as 10.4.
